The values that follow come from PubChem BioAssay (NCI).

Several values for one entry are separate records, joined by “and”; a condition that tells them apart may be missing. Identical values can stand only once.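 Exposure lasted 48 hours, with cells grown in 96-well plates and compounds tested at five concentrations. GI50 = concentration required for 50% inhibition of growth. Definition used: TGI = concentration required for complete inhibition of growth.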

The test system of one experiment is SF-268 CNS. Briefly: NCI tumour cell line growth inhibition, 48 h.
In the case of `COc1ccc2c(c1)N(CCO)C1=C(C(=O)OC1)C2c1cccc(F)c1` (stereo not drawn), the GI50 is 0.764 µM and the TGI is over 50 µM.

For `C=CC(=O)Nc1cccc(Oc2nc(Nc3ccc(N4CCN(C)CC4)cc3)nc3ccsc23)c1`, the GI50 was 3.48 µM and 2.73 µM; the TGI is > 10 µM and 12.9 µM.

`COC1C=COC2(C)Oc3c(C)c(O)c4c(c3C2=O)/C(=N/C2CCC(O)OC2C)C=C(NC(=O)/C(C)=C\C(=O)C2CC2C(O)C(C)C(O)C(C)C(OC(C)=O)C1C)C4=O` (stereo not drawn) had a TGI of 10.5 µM.

On to `CC(=O)/C=C/c1cn(C(=O)OC(C)(C)C)c2ccc(Br)cc12`, for which the GI50 is 24.1 µM and the TGI turned out to be 97.9 µM.

With `CCOc1ccccc1C(=O)N1CCN(c2cc(Cl)cc(Cl)c2)CC1`, the GI50 is 0.112 µM and the TGI stood at 18.7 µM.

With `O=C1c2c(c3c4ccccc4[nH]c3c3ccc4ccccc4c23)C(=O)N1CCN1CCNCC1`, the GI50 is 1.86 µM and the TGI came out at 4.03 µM.

Regarding `COc1cc2c(cc1C1COc3cc4occc4cc3C1=O)OCO2` (stereo not drawn), the TGI was over 100 µM.

Consider `Cc1cc(S(=O)(=O)/N=C(/N)Nc2ccccc2O)c(SCc2ccccc2)cc1Cl`, for which the GI50 was 13.4 µM and the TGI came to 45.4 µM.

As to `Cc1c(/C=N/N=C/c2[nH]c(C(=O)OC(C)(C)C)c(C)c2C)[nH]c(C(=O)OC(C)(C)C)c1C`, the TGI is over 100 µM.

The test system of a further experiment is NCI-H226 lung. Briefly: NCI tumour cell line growth inhibition, 48 h.
In the case of `N#Cc1c(N2CCOCC2)nc(=S)[nH]c1-c1ccco1`, the GI50 was 3.94 µM and the TGI came out at 63.5 µM.

With `C[C@@H]1CN(Cc2ccc(F)cc2)[C@@H](C)CN1C(=O)c1cc2c(C(=O)C(=O)N(C)C)cn(C)c2cc1Cl`, the GI50 was 12.2 µM and the TGI amounted to 31.1 µM.

In turn, `COc1ccccc1-c1cc(=O)c2cc(C)cnc2[nH]1` showed a TGI of over 100 µM.

Regarding `O=[N+]([O-])c1ccc(C=Cc2ccccc2)cc1.[C-]#[O+].[C-]#[O+].[C-]#[O+].[Cr]`, the GI50 was 27.8 µM and the TGI was over 100 µM.

For the compound `OCC1OC(n2cnc3c(N/N=C\c4ccccn4)ncnc32)C(O)C1O` (stereo not drawn), the GI50 was 0.525 µM and the TGI was over 100 µM.

With `CC(=O)Nc1ccc(SC#N)c2c(NC(C)=O)cccc12`, the TGI was over 100 µM.

On to `COc1cc2c(cc1OCCCn1c(-c3ccccn3)nc3ccccc31)N=C[C@@H]1CCCN1C2=O`, for which the GI50 was 0.8 µM and the TGI came out at 6.9 µM.

As to `c1cnn2ncc(-c3ccnc(NCCCN4CCOCC4)n3)c2c1`, the GI50 was 3.79 µM and the TGI was over 16.8 µM.

Consider `COc1ccc2c(c1)N(CCO)C1=C(C(=O)OC1)C2c1cccc(F)c1` (stereo not drawn), for which the GI50 was 4.16 µM and the TGI was over 50 µM.

As for `C=CC(=O)Nc1cccc(Oc2nc(Nc3ccc(N4CCN(C)CC4)cc3)nc3ccsc23)c1`, the GI50 is 8.23 µM and 10.4 µM; the TGI is > 10 µM and 36.9 µM.

Take `COC1C=COC2(C)Oc3c(C)c(O)c4c(c3C2=O)/C(=N/C2CCC(O)OC2C)C=C(NC(=O)/C(C)=C\C(=O)C2CC2C(O)C(C)C(O)C(C)C(OC(C)=O)C1C)C4=O` (stereo not drawn): the TGI was determined as 8.06 µM.

In the case of `CC(=O)/C=C/c1cn(C(=O)OC(C)(C)C)c2ccc(Br)cc12`, the GI50 was 11.7 µM and the TGI came out at 28.7 µM.

Regarding `CCOc1ccccc1C(=O)N1CCN(c2cc(Cl)cc(Cl)c2)CC1`, the GI50 is 0.839 µM and the TGI came to 6.55 µM.

On to `O=C1c2c(c3c4ccccc4[nH]c3c3ccc4ccccc4c23)C(=O)N1CCN1CCNCC1`, for which the GI50 is 11.7 µM and the TGI was 33.3 µM.

`COc1cc2c(cc1C1COc3cc4occc4cc3C1=O)OCO2` (stereo not drawn) showed a TGI of over 100 µM.

Consider `Cc1cc(S(=O)(=O)/N=C(/N)Nc2ccccc2O)c(SCc2ccccc2)cc1Cl`, for which the GI50 is 33.1 µM and the TGI was over 100 µM.

In the case of `Cc1c(/C=N/N=C/c2[nH]c(C(=O)OC(C)(C)C)c(C)c2C)[nH]c(C(=O)OC(C)(C)C)c1C`, the TGI was over 100 µM.

For another experiment, the system named is CCRF-CEM leukemia. Briefly: NCI tumour cell line growth inhibition, 48 h.
As for `N#Cc1c(N2CCOCC2)nc(=S)[nH]c1-c1ccco1`, the GI50 is 5.52 µM and the TGI is 52 µM.

`C[C@@H]1CN(Cc2ccc(F)cc2)[C@@H](C)CN1C(=O)c1cc2c(C(=O)C(=O)N(C)C)cn(C)c2cc1Cl`: the GI50 was 18.5 µM and the TGI came to 50.2 µM.

On to `COc1ccccc1-c1cc(=O)c2cc(C)cnc2[nH]1`, for which the TGI worked out at 55.2 µM.

Consider `O=[N+]([O-])c1ccc(C=Cc2ccccc2)cc1.[C-]#[O+].[C-]#[O+].[C-]#[O+].[Cr]`, for which the GI50 was 2.72 µM and the TGI is over 100 µM.

For the compound `OCC1OC(n2cnc3c(N/N=C\c4ccccn4)ncnc32)C(O)C1O` (stereo not drawn), the GI50 was 0.0338 µM and the TGI is over 100 µM.

Compound `CC(=O)Nc1ccc(SC#N)c2c(NC(C)=O)cccc12` yielded a TGI of over 90.6 µM.

As to `COc1cc2c(cc1OCCCn1c(-c3ccccn3)nc3ccccc31)N=C[C@@H]1CCCN1C2=O`, the GI50 was 15.7 µM and the TGI is over 25 µM.

Regarding `c1cnn2ncc(-c3ccnc(NCCCN4CCOCC4)n3)c2c1`, the GI50 was 7.73 µM and the TGI was over 25 µM.

Regarding `COc1ccc2c(c1)N(CCO)C1=C(C(=O)OC1)C2c1cccc(F)c1` (stereo not drawn), the GI50 was 0.43 µM and the TGI is over 50 µM.

Regarding `C=CC(=O)Nc1cccc(Oc2nc(Nc3ccc(N4CCN(C)CC4)cc3)nc3ccsc23)c1`, the GI50 was 2.6 µM and the TGI was determined as 9.88 µM.

With `COC1C=COC2(C)Oc3c(C)c(O)c4c(c3C2=O)/C(=N/C2CCC(O)OC2C)C=C(NC(=O)/C(C)=C\C(=O)C2CC2C(O)C(C)C(O)C(C)C(OC(C)=O)C1C)C4=O` (stereo not drawn), the TGI stood at 10.9 µM.

`CC(=O)/C=C/c1cn(C(=O)OC(C)(C)C)c2ccc(Br)cc12`: the GI50 is 1.07 µM and the TGI is over 100 µM.

As for `CCOc1ccccc1C(=O)N1CCN(c2cc(Cl)cc(Cl)c2)CC1`, the GI50 was 0.0357 µM and the TGI is 33.5 µM.

In the case of `O=C1c2c(c3c4ccccc4[nH]c3c3ccc4ccccc4c23)C(=O)N1CCN1CCNCC1`, the GI50 was 1.33 µM and the TGI stood at 4.22 µM.

Turning to `COc1cc2c(cc1C1COc3cc4occc4cc3C1=O)OCO2` (stereo not drawn), the TGI was over 100 µM.

On to `Cc1cc(S(=O)(=O)/N=C(/N)Nc2ccccc2O)c(SCc2ccccc2)cc1Cl`, for which the GI50 is 5.95 µM and the TGI is 39.8 µM.

As to `Cc1c(/C=N/N=C/c2[nH]c(C(=O)OC(C)(C)C)c(C)c2C)[nH]c(C(=O)OC(C)(C)C)c1C`, the TGI was over 100 µM.
